# Experiments:
# IL-2 = IL-2 level of cultured cells from dosed mice (CTLL cells); assay type: in vivo, ICR mice; conditions: 0.02 g/kg, 10 days
# Protocol: 60 ICR mice, 1822 g, half male and half female, were divided into 6 groups at random. Each group was drenched of the correspondent medicines including the different dosages of Fengshiping and the other medicines. The medicines were administrated once a day for 10 days. 24 hours after the last administration, the mice were sampled the macrophage and spleen cells from the abdominal cavity in the aseptic condition. The samples were washed with Hank's liquor for 2 times and non-serum RPIM 1640 liquor for 1 time. Then the washed samples were diluted to the suspension with the 5% FCS-RPMI 1640 at the concentration of 2×10^8/ml. Then the suspensions were added with 10 ng/ml LPS or the 10 ng/ml ConA and cultured in the 5% CO2 condition for 48 hours at 37° C. Then the cultured suspension were measured the TNF α and IL-2 levels on the usual methods.
# The CTLL cells which was on the logarithmic growth phase and whose growth depends on the IL-2, were adjusted to the suspension at the concentration of 1×10^5/ml with the 5% FCS-RPMI 1640. Then the 96 hole cell culturing batten were added with the CTLL cell suspension on the quantity of 100 μl/hole. The supernates were added on the quantity of 100 μl/hole and each sample was added to 3 holes. […] The samples were cultured for 3 hours at 37° C., and then measured the OD at the wavelength 570 nm and 630 nm. […]
# spleen cells = experiment: Lymphocyte transformation induced by ConA; assay type: in vivo, NIH mice; conditions: 0.02 g/kg
# Protocol: 80 NIH mice, half male and half female, were divided into 8 groups randomly and drenched with the correspondent medicines once a day for 10 days. 24 hours after the last administration, all the mice were killed to sample the spleen cells aseptically. Then the samples were washed by the Hank's liquor for 2 times and nonserum RPMI1640 liquor for 1 time. Then the clear samples were adjusted to the 2×10^6/ml cell suspension with 5% FCS-RPMI liquor. The 96-hole flat bottom cell culturing batten was added with the cell suspension on the quantity of 100 μl/hole. Each sample was cultured with 3 copies. 2 holes were added in 2 ng ConA each as the stimulating reagent. The other hole was not added in the ConA and kept as the control hole. The batten was cultured in 5% CO2 at 37° C. for 72 hours. 14 hours before the end of the culture, each hole was added in 3H-TdR 0.1μ Ci. The cells were harvested by the multihead cell harvesting instrument and measured the cpm value. The average value was adopted as the sample's cpm value. The average value and the stimulating index of the different groups were compared directly. The stimulating index was calculated as following: […]
# CD4, CD8 cells = experiment: CD4 and CD8 cells of the spleen; assay type: in vivo, ICR mice; conditions: 0.02 g/kg
# Protocol: (§1) The experiment was same to 5.1. 24 hours after the last administration, the spleen cell samples were made into the 2×10^8/ml cell suspension with 5% FCS-RPIM1640. The quantity of CD4, CD8, NK cells and the rate CD4/CD8 were measured on the usural method.
# The spleen cell suspension 50 μl was added on the glass to made the cell smear. The glass had been coated by the polylysine. The T cell of the mouse was set as the positive control sample. The cell smear was enveloped by the serum of the normal mouse after it was fixed by the acetone. Then the enveloped sample was added with the antibody of CD4 and CD8 which were marked by the hominine biotin. It was incubated at 37° C. for 2 hours. Then the sample was added with the avidin labeled by enzyme and put still for 10 min. After added with the substrate for 10 min, the mixed sample was washed and dyed with the hematoxylin for 2 min. Then the sample was dyhidrated with the grade-alcohol and enveloped with gelatin-glycetrol. 200 cells in the smear were chosen as the research target under the high power microscope. [formula]
# NK cell = NK cell activity (Yack-1 target cells); assay type: in vivo, ICR mice; conditions: 0.02 g/kg
# Protocol: as §1
# The preparation of the EC cell: The spleen cells were sampled in the asepsis condition. Then the samples were washed by the Hank's liquor for 2 times and nonserum RPMI1640 liquor for 1 time. Then the clear samples were adjusted to the 2×10^8/ml cell suspension with 5% FCS-RPMI liquor. This cell suspension was used as the EC.
# The preparation of the TC cell: The Yack-1 cells, which were sensitive to the mouse NK cell and on the logarithmic growth phase, were adjusted to the 4×10^4/ml cell suspension. It was the TC.
# Measurement: EC and TC, 100 μl each were added in the 96-hole flat bottom cell culturing batten. Each sample was cultured with 3 copies and set 2 control samples: EC and TC. […] The samples were cultured in 5% CO2 at 37° C. for 24 hours. 6 hours before the end of the culturing, the samples were centrifuged and sucked out 110 μl supernate each hole. And then the holes were added in the MTT 10 μl. After put at 37° C. for 3 hours, the mixed samples were measured the OD value at the wavelength of 570 nm and 630 nm. The OD of each hole=OD570 nm-OD630 nm.
compound,measurement,setting,value
O=P1(N(CCCl)CCCl)NCCCO1 (stereo not shown) [cyclophosphane],IL-2,IL-2,10.10 ± 3.00 IU/ml
same,Stimulating index,spleen cells,13.66 ± 2.28
same,cpm,spleen cells,9922 ± 1145 cpm
same,CD4,"CD4, CD8 cells",11.50 ± 2.50 %
same,CD4/CD8,"CD4, CD8 cells",2.91 ± 0.53
same,CD8,"CD4, CD8 cells",4.10 ± 1.20 %
same,NK,NK cell,23.10 ± 3.66 ^
